Data: ChEMBL document CHEMBL4417626, “Post-Translational Regulation of Catalytic Activities of Cytochrome P450 46A1 and Uses Thereof” (2017)
pKi: −log10 of the molar value. Activity calls are given as the source filed them. No cut-off for these calls is given here.

Legend:
[1] = target: T1, Cholesterol 24-hydroxylase (Homo sapiens, UniProt Q9Y6A2); test: Stimulation of full-length recombinant human CYP46A1 assessed as cholesterol hydroxylation at 43 uM using cholesterol as substrate in presence of NADPH cytochrome P450 oxidoreductase by gas chromatography-mass spectrometry
Target sequence in this assay (Q9Y6A2 whole entry, looked up): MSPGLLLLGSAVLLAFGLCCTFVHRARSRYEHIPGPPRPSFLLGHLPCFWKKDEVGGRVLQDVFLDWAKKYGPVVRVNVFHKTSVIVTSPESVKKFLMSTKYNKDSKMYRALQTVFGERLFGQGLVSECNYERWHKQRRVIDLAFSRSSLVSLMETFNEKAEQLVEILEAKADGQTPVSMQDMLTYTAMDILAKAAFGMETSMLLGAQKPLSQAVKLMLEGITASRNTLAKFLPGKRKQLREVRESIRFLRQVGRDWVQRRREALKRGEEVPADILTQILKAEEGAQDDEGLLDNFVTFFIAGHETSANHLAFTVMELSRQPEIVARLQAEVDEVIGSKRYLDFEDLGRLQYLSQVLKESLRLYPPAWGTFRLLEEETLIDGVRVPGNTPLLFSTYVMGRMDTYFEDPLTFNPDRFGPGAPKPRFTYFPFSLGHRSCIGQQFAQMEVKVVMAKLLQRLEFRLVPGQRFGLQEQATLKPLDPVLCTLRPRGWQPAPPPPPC

[2] = target: T2, Cholesterol side-chain cleavage enzyme, mitochondrial (Bos taurus, UniProt P00189); test: Binding affinity to active site of bovine CYP11A1 assessed as induction of type-II spectral response by spectral binding study; conditions: cattle
T2 sequence (P00189 whole entry): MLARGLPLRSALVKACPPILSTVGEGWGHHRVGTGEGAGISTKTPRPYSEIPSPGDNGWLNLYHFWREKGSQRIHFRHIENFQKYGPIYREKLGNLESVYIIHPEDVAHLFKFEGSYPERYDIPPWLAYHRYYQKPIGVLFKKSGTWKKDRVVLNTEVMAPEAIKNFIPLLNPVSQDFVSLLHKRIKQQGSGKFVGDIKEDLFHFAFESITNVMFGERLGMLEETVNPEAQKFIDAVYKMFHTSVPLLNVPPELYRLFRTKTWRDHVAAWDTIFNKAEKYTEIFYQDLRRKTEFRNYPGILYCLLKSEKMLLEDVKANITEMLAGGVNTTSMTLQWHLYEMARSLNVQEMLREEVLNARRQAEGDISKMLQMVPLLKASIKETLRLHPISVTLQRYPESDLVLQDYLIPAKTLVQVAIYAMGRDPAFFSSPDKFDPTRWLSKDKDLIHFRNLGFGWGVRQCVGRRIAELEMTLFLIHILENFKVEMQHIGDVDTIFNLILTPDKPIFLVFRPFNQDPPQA

Mus musculus [3] = species: Mus musculus; conditions: C57/B6J, 60 mg/kg
Description: In-vivo inhibition of CYP46A1 in C57/B6J mouse brain assessed as reduction in lathosterol level at 60 mg/kg, ip dosed qd for 5 days by isotope dilution mass-spectrometry relative to control

Mus musculus [4] = species: Mus musculus; conditions: C57/B6J, 60 mg/kg; remark: listed apart in the source
[5] = target: T3, Sterol 26-hydroxylase, mitochondrial (Homo sapiens) (UniProt Q02318); test: Binding affinity to full-length recombinant human CYP27A1 assessed as induction of spectral shift up to 100 uM by spectral binding study
T3 sequence (whole entry): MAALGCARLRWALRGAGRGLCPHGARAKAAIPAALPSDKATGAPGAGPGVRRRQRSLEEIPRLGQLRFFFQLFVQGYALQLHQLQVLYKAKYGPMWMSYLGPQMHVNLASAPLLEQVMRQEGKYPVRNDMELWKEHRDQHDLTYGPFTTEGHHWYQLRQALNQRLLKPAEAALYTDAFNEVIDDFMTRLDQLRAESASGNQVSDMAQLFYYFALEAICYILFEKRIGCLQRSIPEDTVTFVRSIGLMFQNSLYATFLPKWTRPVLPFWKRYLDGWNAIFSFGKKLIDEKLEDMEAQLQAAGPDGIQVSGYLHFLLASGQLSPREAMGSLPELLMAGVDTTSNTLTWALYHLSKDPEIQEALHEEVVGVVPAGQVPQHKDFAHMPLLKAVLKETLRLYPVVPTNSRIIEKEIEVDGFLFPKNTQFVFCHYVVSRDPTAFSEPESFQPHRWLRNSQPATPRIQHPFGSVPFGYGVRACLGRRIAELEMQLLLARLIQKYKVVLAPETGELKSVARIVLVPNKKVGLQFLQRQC

Mus musculus [6] = species: Mus musculus; conditions: C57/B6J, 75 mg/kg
[7] = target: T1, Cholesterol 24-hydroxylase; test: Binding affinity to active site of full-length recombinant human CYP46A1 assessed as induction of type-II spectral response with minimum at 413 nm and maximum at 434 nm by spectral binding study
Target sequence in this assay (Q9Y6A2 whole entry, looked up): as the sequence (Q9Y6A2 whole entry, looked up) above

Mus musculus [8] = test: In-vivo inhibition of CYP46A1 in C57/B6J mouse plasma assessed as reduction in 24S-hydroxy cholesterol at 60 mg/kg, ip dosed qd for 5 days by isotope dilution mass-spectrometry relative to control; assay type: functional; conditions: 120 h
[9] = target: T1, Cholesterol 24-hydroxylase; test: Inhibition of full-length recombinant human CYP46A1 assessed as cholesterol hydroxylation using cholesterol as substrate in presence of NADPH cytochrome P450 oxidoreductase by gas chromatography-mass spectrometry
Target sequence in this assay (Q9Y6A2 whole entry): as the sequence (Q9Y6A2 whole entry, looked up) above

[10] = target: T1, Cholesterol 24-hydroxylase; test: Binding affinity to full-length recombinant human CYP46A1 by spectral binding study
Target sequence in this assay (Q9Y6A2 whole entry, looked up): as the sequence (Q9Y6A2 whole entry, looked up) above

Row | Structure (SMILES) | Activity [1] [%] | other results
1 | CCOc1ccc(N)cc1 | 50 | –
2 | CCOc1ccc(NC(=O)CC)cc1 | 101 | –
3 | COc1ccc(NC(C)=O)cc1 | 100 | –
4 | CC(=O)Nc1ccccc1O | 103 | –
5 | C[C@@H](c1ncncc1F)[C@](O)(Cn1cncn1)c1ccc(F)cc1F [VORICONAZOLE] | – | Activity [2]: Active; inhibition (Mus musculus [3]): Active; inhibition (Mus musculus [4]): Active; Activity [5]: inactive; inhibition (Mus musculus [6]): Active; Activity [7]: Active; inhibition in vivo at 60 mg/kg (Mus musculus [8]): 30%
6 | CC(=O)[C@H]1CC[C@H]2[C@@H]3CC=C4C[C@@H](OS(=O)(=O)O)CC[C@]4(C)[C@H]3CC[C@]12C | – | pKi [9]: 5.60
7 | CC(=O)[C@H]1CC[C@H]2[C@@H]3CC=C4C[C@@H](O)CC[C@]4(C)[C@H]3CC[C@]12C | – | Activity [10]: inactive
8 | CC(=O)Nc1ccc(CO)cc1 | 112 | –
9 | CCCCOc1ccc(NC(C)=O)cc1 | 107 | –
10 | CC(=O)Nc1ccc(O)cc1 | 132 | –
11 | CC(=O)Nc1ccc(C)cc1 | 112 | –
12 | CC(=O)Nc1cccc(O)c1 | 87 | –
